Results as given in ChEMBL document CHEMBL3885881, “DrugMatrix”.

Species: Rattus norvegicus
Experiment: DrugMatrix - Regimen: Daily Repeat
Assay type: toxicity, organism-based, Sprague-Dawley
Design: regimen Daily Repeat, gender Male, age 6-8 weeks
Details: in vivo, po, route oral GAVAGE, vehicle .5 % CMC; for ABSOLUTE BASOPHIL / ABSOLUTE EOSINOPHIL / ABSOLUTE LYMPHOCYTE / ABSOLUTE MONOCYTE / ABSOLUTE SEGMENTED NEUTROPHIL / BASOPHIL / EOSINOPHIL / ERYTHROCYTE COUNT / HEMATOCRIT / HEMOGLOBIN / LEUKOCYTE COUNT / LYMPHOCYTE / MEAN CORPUSCULAR HEMOGLOBIN / MEAN CORPUSCULAR HEMOGLOBIN CONCENTRATION / MEAN CORPUSCULAR VOLUME / MONOCYTE / NEUTROPHIL / NUCLEATED RED BLOOD CELLS / PLATELET COUNT: tissue Blood; for ALANINE AMINOTRANSFERASE / ALBUMIN / ALKALINE PHOSPHATASE / ASPARTATE AMINOTRANSFERASE / BLOOD UREA NITROGEN / CARBON DIOXIDE / CHLORIDE / CHOLESTEROL / CREATINE PHOSPHOKINASE / CREATININE / GLUCOSE / LACTATE DEHYDROGENASE / LIPASE / PHOSPHORUS / POTASSIUM / SODIUM / TOTAL BILIRUBIN / TOTAL PROTEIN / URIC ACID: tissue Plasma
[1] = 20 mg/kg, 120 h, dose level Low, time 5 day
[2] = 1500 mg/kg, 72 h, dose level High, time 3 day
[3] = 1500 mg/kg, 120 h, dose level High, time 5 day

In the case of `CC(C)(C)NC(=O)[C@@H]1C[C@@H]2CCCC[C@@H]2CN1C[C@@H](O)[C@H](Cc1ccccc1)NC(=O)[C@H](CC(N)=O)NC(=O)c1ccc2ccccc2n1`, the “ABSOLUTE BASOPHIL” value [1] is reported as 0 CELLS/uL, the “ABSOLUTE EOSINOPHIL” value [1] is reported as 247 CELLS/uL and the “ABSOLUTE LYMPHOCYTE” value [1] is reported as 11820.33 CELLS/uL. The “ABSOLUTE MONOCYTE” value [1] was 0 CELLS/uL, the “ABSOLUTE SEGMENTED NEUTROPHIL” value [1] was 1032.67 CELLS/uL and the BASOPHIL [1] was 0%. The EOSINOPHIL [1] was 2%, the “ERYTHROCYTE COUNT” value [1] was 5.22 x10E6/uL and the HEMATOCRIT [1] was 32.83%. For the same molecule, the HEMOGLOBIN [1] was 12.53 G/DL, the “LEUKOCYTE COUNT” value [1] was 13.1 x10E3/uL and the LYMPHOCYTE [1] was 90.33%. For the same molecule, the “MEAN CORPUSCULAR HEMOGLOBIN” value [1] was 24.03 pg, the “MEAN CORPUSCULAR HEMOGLOBIN CONCENTRATION” value [1] was 38.2 G/DL and the “MEAN CORPUSCULAR VOLUME” value [1] was 63.03 fL. For the same molecule, the MONOCYTE [1] was 0%, the NEUTROPHIL [1] was 7.67% and the “NUCLEATED RED BLOOD CELLS” value [1] was 0 /100WBC. For the same molecule, the “PLATELET COUNT” value [1] was 1193.67 x10E3/uL, the “ALANINE AMINOTRANSFERASE” value [1] was 53.33 u/L and the ALBUMIN [1] was 4.33 G/DL. The “ALKALINE PHOSPHATASE” value [1] was 341.67 u/L, the “ASPARTATE AMINOTRANSFERASE” value [1] was 80.67 u/L and the “BLOOD UREA NITROGEN” value [1] was 18 mg/dL. For the same molecule, the “CARBON DIOXIDE” value [1] was 25.33 mmol/L, the CHLORIDE [1] was 102.67 MEQ/L and the CHOLESTEROL [1] was 79.33 mg/dL. The “CREATINE PHOSPHOKINASE” value [1] was 166.33 u/L, the CREATININE [1] was 0.19 mg/dL and the GLUCOSE [1] was 146.67 mg/dL. For the same molecule, the “LACTATE DEHYDROGENASE” value [1] was 98.33 u/L, the LIPASE [1] was 8.67 u/L and the PHOSPHORUS [1] was 11.57 mg/dL. The POTASSIUM [1] was 5.98 MEQ/L, the SODIUM [1] was 144.17 MEQ/L and the “TOTAL BILIRUBIN” value [1] was 0.17 mg/dL. The “TOTAL PROTEIN” value [1] was 6.37 G/DL, the “URIC ACID” value [1] was 1.27 mg/dL and the “ABSOLUTE BASOPHIL” value [2] was 0 CELLS/uL. For the same molecule, the “ABSOLUTE EOSINOPHIL” value [2] was 137.33 CELLS/uL, the “ABSOLUTE LYMPHOCYTE” value [2] was 12869.33 CELLS/uL and the “ABSOLUTE MONOCYTE” value [2] was 0 CELLS/uL. The “ABSOLUTE SEGMENTED NEUTROPHIL” value [2] was 1126.67 CELLS/uL, the BASOPHIL [2] was 0% and the EOSINOPHIL [2] was 1%. The “ERYTHROCYTE COUNT” value [2] was 6.18 x10E6/uL, the HEMATOCRIT [2] was 38.67% and the HEMOGLOBIN [2] was 14.47 G/DL. For the same molecule, the “LEUKOCYTE COUNT” value [2] was 14.13 x10E3/uL, the LYMPHOCYTE [2] was 91% and the “MEAN CORPUSCULAR HEMOGLOBIN” value [2] was 23.47 pg. For the same molecule, the “MEAN CORPUSCULAR HEMOGLOBIN CONCENTRATION” value [2] was 37.4 G/DL, the “MEAN CORPUSCULAR VOLUME” value [2] was 62.63 fL and the MONOCYTE [2] was 0%. The NEUTROPHIL [2] was 8%, the “NUCLEATED RED BLOOD CELLS” value [2] was 0 /100WBC and the “PLATELET COUNT” value [2] was 1247.33 x10E3/uL. For the same molecule, the “ALANINE AMINOTRANSFERASE” value [2] was 48.67 u/L, the ALBUMIN [2] was 4.4 G/DL and the “ALKALINE PHOSPHATASE” value [2] was 408 u/L. The “ASPARTATE AMINOTRANSFERASE” value [2] was 76.67 u/L, the “BLOOD UREA NITROGEN” value [2] was 14 mg/dL and the “CARBON DIOXIDE” value [2] was 26.67 mmol/L. The CHLORIDE [2] was 99.67 MEQ/L, the CHOLESTEROL [2] was 80 mg/dL and the “CREATINE PHOSPHOKINASE” value [2] was 218.33 u/L. For the same molecule, the CREATININE [2] was 0.15 mg/dL, the GLUCOSE [2] was 162 mg/dL and the “LACTATE DEHYDROGENASE” value [2] was 94.33 u/L. It also gave an LIPASE [2] of 8.67 u/L, a PHOSPHORUS [2] of 12.5 mg/dL and a POTASSIUM [2] of 6.95 MEQ/L. The SODIUM [2] was 144.6 MEQ/L, the “TOTAL BILIRUBIN” value [2] was 0.17 mg/dL and the “TOTAL PROTEIN” value [2] was 6.17 G/DL. For the same molecule, the “URIC ACID” value [2] was 1.83 mg/dL, the “ABSOLUTE BASOPHIL” value [3] was 0 CELLS/uL and the “ABSOLUTE EOSINOPHIL” value [3] was 190 CELLS/uL. The “ABSOLUTE LYMPHOCYTE” value [3] was 12822 CELLS/uL, the “ABSOLUTE MONOCYTE” value [3] was 0 CELLS/uL and the “ABSOLUTE SEGMENTED NEUTROPHIL” value [3] was 1388 CELLS/uL. For the same molecule, the BASOPHIL [3] was 0%, the EOSINOPHIL [3] was 1.33% and the “ERYTHROCYTE COUNT” value [3] was 5.33 x10E6/uL. The HEMATOCRIT [3] was 33.83%, the HEMOGLOBIN [3] was 13.1 G/DL and the “LEUKOCYTE COUNT” value [3] was 14.4 x10E3/uL. The LYMPHOCYTE [3] was 89.33%, the “MEAN CORPUSCULAR HEMOGLOBIN” value [3] was 24.63 pg and the “MEAN CORPUSCULAR HEMOGLOBIN CONCENTRATION” value [3] was 38.73 G/DL. The “MEAN CORPUSCULAR VOLUME” value [3] was 63.53 fL, the MONOCYTE [3] was 0% and the NEUTROPHIL [3] was 9.33%. For the same molecule, the “NUCLEATED RED BLOOD CELLS” value [3] was 0 /100WBC, the “PLATELET COUNT” value [3] was 1411.67 x10E3/uL and the “ALANINE AMINOTRANSFERASE” value [3] was 48 u/L. The ALBUMIN [3] was 4.4 G/DL, the “ALKALINE PHOSPHATASE” value [3] was 396.33 u/L and the “ASPARTATE AMINOTRANSFERASE” value [3] was 69 u/L. For the same molecule, the “BLOOD UREA NITROGEN” value [3] was 15.67 mg/dL, the “CARBON DIOXIDE” value [3] was 25.67 mmol/L and the CHLORIDE [3] was 103.33 MEQ/L. The CHOLESTEROL [3] was 71.67 mg/dL, the “CREATINE PHOSPHOKINASE” value [3] was 233.33 u/L and the CREATININE [3] was 0.17 mg/dL. For the same molecule, the GLUCOSE [3] was 169 mg/dL, the “LACTATE DEHYDROGENASE” value [3] was 123.33 u/L and the LIPASE [3] was 8.33 u/L. It also gave a PHOSPHORUS [3] of 12.8 mg/dL, a POTASSIUM [3] of 6.57 MEQ/L and an SODIUM [3] of 145.83 MEQ/L. The “TOTAL BILIRUBIN” value [3] was 0.23 mg/dL, the “TOTAL PROTEIN” value [3] was 6.23 G/DL and the “URIC ACID” value [3] was 1.7 mg/dL.
